Reference: ChEMBL document CHEMBL1781926, “Synthesis of 1-naphtylpiperazine derivatives as serotoninergic ligands and their evaluation as antiproliferative agents” (Eur J Med Chem, 2011)
pIC50, pKi: −log10 of the molar value. Activity calls are given as the source filed them. The calls are words filed in the database; no cut-off is given here.

What was measured:
[1] = biological target: 5-hydroxytryptamine receptor 2A (Rattus norvegicus, UniProt P14842); assay: Displacement of [3H]Ketanserin from 5HT2A receptor in Sprague-Dawley rat frontal cortical homogenates after 15 mins
[2] = biological target: T1, 5-hydroxytryptamine receptor 1A (Rattus norvegicus, UniProt P19327); assay: Displacement of [3H]8-OH-DPAT from 5HT1A receptor in Sprague-Dawley rat brain cortex homogenates after 30 mins by liquid scintillation counting; type: tissue-based
T1 sequence (P19327 whole entry): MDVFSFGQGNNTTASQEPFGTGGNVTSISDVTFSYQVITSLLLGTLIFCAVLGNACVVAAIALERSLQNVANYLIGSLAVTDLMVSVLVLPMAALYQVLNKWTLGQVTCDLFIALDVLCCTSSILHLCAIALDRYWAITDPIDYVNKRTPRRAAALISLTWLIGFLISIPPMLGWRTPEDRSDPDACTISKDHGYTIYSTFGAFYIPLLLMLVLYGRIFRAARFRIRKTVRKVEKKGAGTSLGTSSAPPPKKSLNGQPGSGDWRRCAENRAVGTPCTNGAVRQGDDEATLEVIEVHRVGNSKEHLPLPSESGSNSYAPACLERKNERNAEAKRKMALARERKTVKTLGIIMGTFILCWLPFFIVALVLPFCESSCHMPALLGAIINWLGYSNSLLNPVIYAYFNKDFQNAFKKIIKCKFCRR

PC-3 = assay: Antiproliferative activity against human PC3 cells assessed as growth inhibition after 96 hrs by SRB assay; type: functional, cell-based; conditions: for pIC50: PC-3, 96 h
D(1A) dopamine receptor = D(1A) dopamine receptor (Rattus norvegicus, UniProt P18901); assay: Displacement of [3H]SCH 23390 from dopamine D1 receptor in rat corpora striatum homogenates after 15 mins by liquid scintillation counting
[3] = biological target: T2, Adrenergic receptor alpha-2 (Rattus norvegicus, UniProt P22086+P19328+P22909); assay: Displacement [3H]yohimbine from alpha 2 adrenergic receptor in rat brain cortex homogenates after 30 mins by liquid scintillation counting; type: tissue-based
T2 sequence (P22086 whole entry): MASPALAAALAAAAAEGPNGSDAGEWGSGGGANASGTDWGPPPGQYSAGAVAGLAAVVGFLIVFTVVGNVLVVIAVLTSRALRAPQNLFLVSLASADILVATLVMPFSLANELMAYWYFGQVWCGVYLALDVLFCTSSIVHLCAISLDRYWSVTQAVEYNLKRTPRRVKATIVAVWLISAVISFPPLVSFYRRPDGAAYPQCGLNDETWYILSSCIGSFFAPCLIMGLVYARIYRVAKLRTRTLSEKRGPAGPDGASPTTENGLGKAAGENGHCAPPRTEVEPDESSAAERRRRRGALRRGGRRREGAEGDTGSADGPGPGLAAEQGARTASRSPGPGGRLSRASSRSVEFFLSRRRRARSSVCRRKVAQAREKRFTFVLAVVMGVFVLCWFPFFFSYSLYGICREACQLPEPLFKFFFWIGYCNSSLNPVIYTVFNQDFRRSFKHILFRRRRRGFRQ
T2 sequence (P19328 whole entry): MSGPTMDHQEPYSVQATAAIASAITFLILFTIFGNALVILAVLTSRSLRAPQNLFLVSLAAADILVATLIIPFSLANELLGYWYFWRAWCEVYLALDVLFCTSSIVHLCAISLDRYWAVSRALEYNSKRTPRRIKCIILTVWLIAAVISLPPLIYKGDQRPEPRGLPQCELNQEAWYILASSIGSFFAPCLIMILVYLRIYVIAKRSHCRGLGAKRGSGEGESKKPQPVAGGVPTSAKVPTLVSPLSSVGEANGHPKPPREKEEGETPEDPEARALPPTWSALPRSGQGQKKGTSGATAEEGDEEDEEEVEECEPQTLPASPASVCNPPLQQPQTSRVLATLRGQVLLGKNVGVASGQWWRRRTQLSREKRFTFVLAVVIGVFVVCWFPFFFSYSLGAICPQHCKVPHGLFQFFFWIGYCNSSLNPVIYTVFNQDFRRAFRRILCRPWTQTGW
T2 sequence (P22909 whole entry): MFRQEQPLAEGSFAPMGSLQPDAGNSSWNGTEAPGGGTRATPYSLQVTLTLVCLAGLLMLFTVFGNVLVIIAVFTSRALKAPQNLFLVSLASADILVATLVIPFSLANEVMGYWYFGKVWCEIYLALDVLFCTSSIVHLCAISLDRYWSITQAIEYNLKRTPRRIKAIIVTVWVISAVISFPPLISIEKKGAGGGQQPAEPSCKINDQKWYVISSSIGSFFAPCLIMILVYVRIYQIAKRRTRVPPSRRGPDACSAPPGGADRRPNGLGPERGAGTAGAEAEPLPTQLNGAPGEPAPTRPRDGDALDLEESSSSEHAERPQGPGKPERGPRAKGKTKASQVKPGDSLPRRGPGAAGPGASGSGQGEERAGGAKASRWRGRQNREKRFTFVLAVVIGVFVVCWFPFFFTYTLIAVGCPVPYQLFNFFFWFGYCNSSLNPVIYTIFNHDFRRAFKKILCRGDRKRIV

Sequence of D(1A) dopamine receptor (P18901 whole entry): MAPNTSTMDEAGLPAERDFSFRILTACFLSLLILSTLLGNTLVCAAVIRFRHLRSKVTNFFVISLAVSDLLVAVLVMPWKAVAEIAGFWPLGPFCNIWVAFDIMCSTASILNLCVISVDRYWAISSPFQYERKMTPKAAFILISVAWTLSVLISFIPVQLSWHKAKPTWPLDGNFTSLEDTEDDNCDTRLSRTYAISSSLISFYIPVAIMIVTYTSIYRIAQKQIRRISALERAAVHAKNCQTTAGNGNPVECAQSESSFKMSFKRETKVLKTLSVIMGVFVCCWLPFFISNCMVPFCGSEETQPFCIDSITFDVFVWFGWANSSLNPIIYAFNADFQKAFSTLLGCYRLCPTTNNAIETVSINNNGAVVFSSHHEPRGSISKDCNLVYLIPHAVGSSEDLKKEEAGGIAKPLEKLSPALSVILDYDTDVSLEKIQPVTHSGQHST
Sequence of 5-hydroxytryptamine receptor 2A (P14842 whole entry): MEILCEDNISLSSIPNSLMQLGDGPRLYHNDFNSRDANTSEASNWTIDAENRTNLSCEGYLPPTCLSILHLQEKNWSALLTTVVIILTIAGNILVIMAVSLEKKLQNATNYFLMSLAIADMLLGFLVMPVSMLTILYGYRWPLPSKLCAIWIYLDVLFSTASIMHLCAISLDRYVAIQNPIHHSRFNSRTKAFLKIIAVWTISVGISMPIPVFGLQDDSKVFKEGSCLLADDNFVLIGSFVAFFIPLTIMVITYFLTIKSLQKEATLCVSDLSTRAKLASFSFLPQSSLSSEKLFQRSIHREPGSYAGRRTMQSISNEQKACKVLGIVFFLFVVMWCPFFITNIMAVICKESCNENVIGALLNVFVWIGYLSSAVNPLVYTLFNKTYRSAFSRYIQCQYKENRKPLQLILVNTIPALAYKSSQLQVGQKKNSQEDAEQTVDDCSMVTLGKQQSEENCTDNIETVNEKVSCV

| SMILES | pKi [1] | pKi [2] | pIC50 (PC-3) | pKi (D(1A) dopamine receptor) | Ki [3] | growth inhibition (GI) (PC-3) |
| --- | --- | --- | --- | --- | --- | --- |
| O=C1C2C3C=CC(C3)C2C(=O)N1OCCN1CCN(c2cccc3ccccc23)CC1 (configuration not stated) | 6.95 | 8.80 | 4.32 | < 5.00 | 1.2 µM | – |
| O=C1C2C3C=CC(C3)C2C(=O)N1OCCCN1CCN(c2cccc3ccccc23)CC1 (configuration not stated) | 7.04 | 9.53 | 4.89 | < 5.00 | 0.189 µM | Dose-dependent effect |
| O=c1c2ccccc2nnn1CCN1CCN(c2cccc3ccccc23)CC1 | 8.28 | – | 4.97 | < 5.00 | 1.88 µM | Dose-dependent effect |
| O=c1c2ccccc2nnn1CCCN1CCN(c2cccc3ccccc23)CC1 | 6.90 | 8.11 | 4.98 | < 5.00 | 3.6 µM | Dose-dependent effect |
| O=c1c2ccccc2nnn1OCCCN1CCN(c2cccc3ccccc23)CC1 | 6.14 | < 5.00 | 4.91 | < 5.00 | > 10 µM | – |
| N#C/N=C(\NCCCN1CCN(c2cccc3ccccc23)CC1)c1ccccn1 | 6.65 | 8.23 | 4.62 | < 5.00 | > 10 µM | – |
| O=c1c2ccccc2nnn1OCCN1CCN(c2cccc3ccccc23)CC1 | 5.88 | < 5.00 | – | < 5.00 | > 10 µM | inactive |
